Structures can show the parent of a compound that is named as a salt.
Tests used:
Format in all cases: cell-based
Adenosine 3 receptor = molecular target: T1, Adenosine 3 receptor (Homo sapiens, UniProt P0DMS8); assay: Agonist activity against adenosine 3 receptor subtype (CHO cells, forskolin-enhanced cAMP, SPAP reporter); details: EC50 ratio to NECA; transfected CHO cells, forskolin-enhanced cAMP reflected by SPAP
T1 construct: expressed in transfected cells; host or cells: Chinese hamster ovary (CHO) cells, co-transfected with a CRE-SPAP reporter
T1 sequence (P0DMS8 1-318): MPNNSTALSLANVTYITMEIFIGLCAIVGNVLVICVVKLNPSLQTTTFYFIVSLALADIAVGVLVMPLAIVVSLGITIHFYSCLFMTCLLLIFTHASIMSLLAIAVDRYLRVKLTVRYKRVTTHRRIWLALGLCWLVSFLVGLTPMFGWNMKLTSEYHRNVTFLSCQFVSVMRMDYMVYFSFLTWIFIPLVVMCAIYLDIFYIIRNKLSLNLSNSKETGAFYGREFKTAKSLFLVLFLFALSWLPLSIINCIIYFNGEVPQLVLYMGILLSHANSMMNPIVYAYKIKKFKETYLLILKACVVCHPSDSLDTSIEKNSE
In short: (§1)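 CHO cells expressed the human receptor plus a cAMP response element–driven SPAP reporter. Agonism was measured as SPAP change from forskolin-enhanced cAMP for A1 and A3, and from basal cAMP for A2a. EC50 is expressed as a ratio to that of NECA.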

Adenosine 2a receptor = molecular target: T2, Adenosine 2a receptor (Homo sapiens, UniProt P29274); assay: Agonist activity against adenosine 2a receptor subtype (CHO cells, cAMP response element/SPAP reporter); details: EC50 ratio to NECA; transfected CHO cells, basal cAMP reflected by SPAP
T2 construct: expressed in transfected cells; host or cells: Chinese hamster ovary (CHO) cells, co-transfected with a CRE-SPAP reporter
In short: as §1

Adenosine 1 receptor = molecular target: T3, Adenosine 1 receptor (Homo sapiens, UniProt P30542); assay: Agonist activity against adenosine 1 receptor subtype (CHO cells, forskolin-enhanced cAMP, SPAP reporter); details: EC50 ratio to NECA; transfected CHO cells, forskolin-enhanced cAMP reflected by SPAP
T3 construct: expressed in transfected cells; host or cells: Chinese hamster ovary (CHO) cells, co-transfected with a CRE-SPAP reporter
T3 sequence (P30542 1-326): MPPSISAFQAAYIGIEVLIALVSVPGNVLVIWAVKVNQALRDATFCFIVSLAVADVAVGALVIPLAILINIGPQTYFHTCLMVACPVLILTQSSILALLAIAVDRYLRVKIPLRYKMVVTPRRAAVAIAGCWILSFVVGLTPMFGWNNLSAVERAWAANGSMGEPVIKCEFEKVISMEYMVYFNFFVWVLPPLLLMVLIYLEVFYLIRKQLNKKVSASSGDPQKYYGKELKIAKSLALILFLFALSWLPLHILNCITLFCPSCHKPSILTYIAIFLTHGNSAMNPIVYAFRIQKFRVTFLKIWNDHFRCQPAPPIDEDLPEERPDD
In short: as §1

T2 sequence (P29274 whole entry): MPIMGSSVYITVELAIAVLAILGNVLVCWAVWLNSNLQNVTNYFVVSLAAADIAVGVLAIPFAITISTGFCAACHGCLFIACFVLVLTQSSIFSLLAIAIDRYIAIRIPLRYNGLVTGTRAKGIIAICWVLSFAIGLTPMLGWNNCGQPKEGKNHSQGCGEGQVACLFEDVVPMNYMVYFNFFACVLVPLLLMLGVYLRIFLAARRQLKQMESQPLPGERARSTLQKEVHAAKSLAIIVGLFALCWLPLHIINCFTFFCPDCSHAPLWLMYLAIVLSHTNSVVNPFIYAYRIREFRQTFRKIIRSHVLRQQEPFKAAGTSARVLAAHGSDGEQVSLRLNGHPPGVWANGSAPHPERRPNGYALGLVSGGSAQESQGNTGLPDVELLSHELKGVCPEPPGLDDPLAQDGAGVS

Molecule | A3 (EC50 values as a ratio of that of NECA) (Adenosine 3 receptor) | A2a (EC50 values as a ratio of that of NECA) (Adenosine 2a receptor) | A1 (EC50 values as a ratio of that of NECA) (Adenosine 1 receptor)
CCc1cc(C2OC(n3cnc4c(NC5CCSCC5)nc(NCCNC(=N)N)nc43)C(O)C2O)on1 (stereo not drawn) [Example 9, N-{2-[9-[5S-(3-Ethyl-isoxazol-5-yl)-3R,4S-dihydroxy-tetrahydro-furan-2R-yl]-6-tetrahydro-thiopyran-4-ylamino)-9H-purin-2-ylamino]-ethyl}-guanidine diformate] | >323 | 2.05 | 132.3
CCc1cc([C@H]2O[C@@H](n3cnc4c(NC(CC)CC)nc(NC5CCCC5)nc43)[C@H](O)[C@@H]2O)on1.O=CO [Example 46, (2R,3R,4S,5S)-2-[2-(Cyclopentylamino)-6-(1-ethyl-propylamino)-purin-9-yl]-5-(3-ethyl-isoxazol-5-yl)-tetrahydro-furan-3,4-diol formate] | >518 | 20.06 | 148.72
(2R,3R,4S,5S)-2-{6-(1-Ethyl-propylamino)-2-[2-(1-methyl-1H-imidazol-4-yl)-ethylamino]-purin-9-yl}-5-(3-propyl-isoxazol-5-yl)-tetrahydro-furan-3,4-diol diformate [Example 60] | ≧248.4 | 4.53 | 155.86
CCc1cc(C2OC(n3cnc4c(NC(CO)C(C)C)nc(NCCNc5ccccn5)nc43)C(O)C2O)on1 [Example 71, (2S,3S,4R,5R)-2-(3-Ethyl-isoxazol-5-yl)-5-{6-(1S-hydroxymethyl-2-methyl-propylamino)-2-[2-(pyridin-2-ylamino)-ethylamino]-purin-9-yl}-tetrahydro-furan-3,4-diol diformate] | >184 | 12.75 | 79.51
CCc1cc(C2OC(n3cnc4c(Nc5ccc(O)c(F)c5)nc(NCCN5CCCCC5)nc43)C(O)C2O)on1.O=CO.O=CO [Example 10, (2S,3S,4R,5R)-2-(3-Ethyl-isoxazol-5-yl)-5-[6-(3-fluoro-4-hydroxy-phenylamino)-2-(2-piperidin-1-yl-ethylamino)-purin-9-yl]-tetrahydro-furan-3,4-diol diformate] | >180 | 2.07 | 59.38
CCc1cc(C2OC(n3cnc4c(NC(CC)CC)nc(NC5CCN(Cc6ccccc6)C5)nc43)C(O)C2O)on1 [Example 49, (2R,3R,4S,5S)-2-[2-(1-Benzyl-pyrrolidin-3S-1-ylamino)-6-(1-ethyl-propylamino)purin-9-yl]-5-(3-ethyl-isoxazol-5-yl)-tetrahydro-furan-3,4-diol formate] | >350 | 7.79 | 28.28
CCc1cc([C@H]2O[C@@H](n3cnc4c(NC(CC)CC)nc(NCCc5cn(C)cn5)nc43)[C@H](O)[C@@H]2O)on1.O=CO.O=CO [Example 5, (2S,3S,4R,5R)-2-(3-Ethyl-isoxazol-5-yl)-5-{6-(1-ethyl-propylamino)-2-[2-(1-methyl-1H-imidazol-4-yl)-ethylamino]-purin-9-yl}-tetrahydro-furan-3,4-diol diformate] | >237 | 0.11 | 30.1
CCc1cc(C2OC(n3cnc4c(NC(CC)CC)nc(NC(CO)Cc5ccccc5)nc43)C(O)C2O)on1 [Example 35, (2S,3S,4R,5R)-2-(3-Ethyl-4-isoxazol-5-yl)-5-[6-(1-ethyl-propylamino)-2-(1S-hydroxymethyl-2-phenyl-ethylamino)-purin-9-yl]-tetrahydro-furan-3,4-diol formate] | >223 | 2.53 | 89.16
CCc1cc([C@H]2O[C@@H](n3cnc4c(NC5CCOCC5)nc(NCCc5ccccn5)nc43)[C@H](O)[C@@H]2O)on1.O=CO.O=CO [Example 13, (2S,3S,4R,5R)-2-(3-Ethyl-isoxazol-5-yl)-5-[2-(2-pyridin-2-yl-ethylamino)-6-(tetrahydro-pyran-4-ylamino)-purin-9-yl]-tetrahydro-furan-3,4-diol diformate] | >146 | 3.03 | 61.9
CCc1cc([C@H]2O[C@@H](n3cnc4c(NCCC(C)(C)C)nc(NCCc5cn(C)cn5)nc43)[C@H](O)[C@@H]2O)on1.O=CO.O=CO [Example 7, (2R,3R,4S,5S)-2-{6-(3,3-Dimethyl-butylamino)-2-[2-(1-methyl-1H-imidazol-4-yl)-ethylamino]-purin-9-yl}-5-(3-ethyl-isoxazol-5-yl)-tetrahydro-furan-3,4-diol diformate] | >312 | 0.35 | >=309.4
CCOC(=O)c1cc(C2OC(n3cnc4c(NC(CC)CC)nc(NCCc5cn(C)cn5)nc43)C(O)C2O)on1 (stereo not drawn) [Example 68, 5-(5R-{6-(1-Ethyl-propylamino)-2-[2-(1-methyl-1H-imidazol-4-yl)-ethylamino]-purin-9-yl}-3S,4R-dihydroxy-tetrahydro-furan-2S-yl)-isoxazole-3-carboxylic acid ethyl ester diformate] | >113 | 30.23 | 60.30
CCc1cc(C2OC(n3cnc4c(NCCc5ccccc5)nc(NCCN5CCCCC5)nc43)C(O)C2O)on1.O=CO.O=CO [Example 3, (2R,3R,4S,5S)-2-(3-Ethyl-isoxazol-5-yl)-5-[6-phenethylamino-2-(2-piperidin-1-yl-ethylamino)-purin-9-yl]-tetrahydro-furan-3,4-diol diformate] | >375 | 1.32 | 231
